Measurements from US8222416B2, “Azaindole glucokinase activators” (Hoffmann-La Roche Inc., priority 2009, dated 2012).

Molecular target: T1, Recombinant human liver GK1 (GST-GK) (Homo sapiens, UniProt P35557)
T1 construct: made in house; host or cells: E. coli
T1 sequence (P35557 1-466 isoform P35557-2): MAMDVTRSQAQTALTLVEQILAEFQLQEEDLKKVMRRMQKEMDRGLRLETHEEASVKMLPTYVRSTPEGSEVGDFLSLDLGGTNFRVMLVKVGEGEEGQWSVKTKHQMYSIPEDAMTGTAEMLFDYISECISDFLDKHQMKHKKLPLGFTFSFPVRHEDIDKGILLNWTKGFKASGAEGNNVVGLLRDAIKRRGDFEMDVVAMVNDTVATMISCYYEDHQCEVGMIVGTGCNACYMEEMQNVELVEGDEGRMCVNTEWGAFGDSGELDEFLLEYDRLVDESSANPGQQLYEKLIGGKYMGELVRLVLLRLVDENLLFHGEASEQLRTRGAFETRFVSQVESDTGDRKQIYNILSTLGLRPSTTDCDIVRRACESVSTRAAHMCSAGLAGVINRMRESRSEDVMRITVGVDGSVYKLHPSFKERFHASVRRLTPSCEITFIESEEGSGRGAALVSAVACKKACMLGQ
Assay: In vitro glucokinase activity assay (G6PDH-coupled, NADH, OD340)
Format: biochemical
Settings: at 30 μM
Experimental: Glucokinase In Vitro Assay Protocol: Glucokinase (GK) was assayed by coupling the production of glucose-6-phosphate to the generation of NADH with glucose-6-phosphate dehydrogenase (G6PDH, 0.75-1 kunits/mg; Boehringer Mannheim, Indianapolis, Ind.) from Leuconostoc mesenteroides as the coupling enzyme (Scheme 2).
Recombinant human liver GK1 was expressed in E. coli as a glutathione S-transferase fusion protein (GST-GK) [Liang et al, 1995] and was purified by chromatography over a glutathione-Sepharose 4B affinity column using the procedure provided by the manufacturer (Amersham Pharmacia Biotech, Piscataway, N.J.).
The assay was conducted at 30° C. in a flat bottom 96-well tissue culture plate from Costar (Cambridge, Mass.) with a final incubation volume of 120 μL. The incubation reaction contained the following: 25 mM Hepes buffer (pH 7.1), 25 mM KCl, 5 mM D-glucose, 1 mM ATP, 1.8 mM NAD, 2 mM MgCl2, 1 μM sorbitol-6-phosphate, 1 mM dithiothreitol, test drug or 10% dimethylsulfoxide, ˜7 units/ml G6PDH, and GK (see below). All organic reagents were >98% pure and were from Boehringer Mannheim with the exceptions of D-glucose and Hepes which were from Sigma Chemical Co, St Louis, Mo. Test compounds were dissolved in dimethylsulfoxide and were added to the incubation reaction minus GST-GK in a volume of 12 μL to yield a final dimethylsulfoxide concentration of 10%. This mix was pre-incubated in the temperature controlled chamber of a SPECTRAmax 250 microplate spectrophotometer (Molecular Devices Corporation, Sunnyvale, Calif.) for 10 minutes to allow temperature equilibrium and then the reaction was started by the addition of 20 μL GST-GK.
After addition of enzyme, the increase in optical density (OD) at 340 nm was monitored spectrophotometrically to determine the rate of change (OD340 per min). The GK activity (OD340/min) in control wells (10% dimethylsulfoxide minus GK activators) was compared with the activity in wells containing test GK activators, and the concentration of activator that produced a 50% increase in the activity of GK, i.e., the SC1.5, was calculated.

| fold activation of GK | Structure (SMILES) |
| --- | --- |
| 1.4 fold at 30 | COc1cnc2[nH]c(C(CC3CCCC3)c3ccc(C(C)(C)O)cc3)cc2c1 (centres unmarked) [Example 35, 2-{4-[2-Cyclopentyl-1-(5-methoxy-1H-pyrrolo[2,3-b]pyridin-2-yl)-ethyl]-phenyl}-propan-2-ol] |

Same assay, conditions: concentration of activator that produced a 50% increase in the activity of GK; 5 mM D-glucose, 30° C.

| Structure (SMILES) | SC1.5 |
| --- | --- |
| CC(O)c1ccc(C(CC2CCCC2)c2cc3cccnc3[nH]2)cc1 (centres unmarked) [Example 64, 1-{4-[2-Cyclopentyl-1-(1H-pyrrolo[2,3-b]pyridin-2-yl)-ethyl]-phenyl}-ethanol] | 2.2 µM |
| COCCOc1cnc2[nH]c(C(CC3CCCC3)c3ccc(S(C)(=O)=O)cc3)cc2c1 (centres unmarked) [Example 15, 2-[2-Cyclopentyl-1-(4-methanesulfonyl-phenyl)-ethyl]-5-(2-methoxy-ethoxy)-1H-pyrrolo[2,3-b]pyridine] | 0.451 µM |
| CS(=O)(=O)c1ccc(C(CC2CCC(=O)C2)c2cc3cccnc3[nH]2)cc1 (single isomer, unassigned) [Example 78, 3-[2-(4-Methanesulfonyl-phenyl)-2-(1H-pyrrolo[2,3-b]pyridin-2-yl)-ethyl]-cyclopentanone] | 11.9 µM |
| COc1cnc2[nH]c([C@H](CC3CCCCC3)c3ccc(S(C)(=O)=O)cc3)cc2c1 (single isomer, unassigned) [Example 10] | 0.218 µM |
| CNC(=O)c1cnc2[nH]c(C(CC3CCCC3)c3ccc(S(C)(=O)=O)cc3)cc2c1 (centres unmarked) [Example 5, 2-[2-Cyclopentyl-1-(4-methanesulfonyl-phenyl)-ethyl]-1H-pyrrolo[2,3-b]pyridin-5-carboxylic acid methylamide] | 1.9 µM |
| COc1cnc2[nH]c(/C(=C/C3CCCO3)c3ccc(S(C)(=O)=O)cc3)cc2c1 (centres unmarked) [Example 21, 2-[(E)-1-(4-Methanesulfonyl-phenyl)-2-(tetrahydro-furan-2-yl)-vinyl]-5-methoxy-1H-pyrrolo[2,3-b]pyridine] | 0.821 µM |
| CS(=O)(=O)c1ccc(C(CC2CCCC2)c2cc3cc(C(=O)NCCO)cnc3[nH]2)cn1 (centres unmarked) [Example 59, 2-[2-Cyclopentyl-1-(6-methanesulfonyl-pyridin-3-yl)-ethyl]-1H-pyrrolo[2,3-b]pyridin-5-carboxylic acid(2-hydroxy-ethyl)-amide] | 5.5 µM |
| COc1ccc(C(CC2CCCC2)c2cc3cccnc3[nH]2)cn1 (centres unmarked) [Example 61] | 3.0 µM |
| COCc1cnc2[nH]c(C(CC3CCCC3)c3ccc(S(C)(=O)=O)cc3)cc2c1 (centres unmarked) [Example 41, 2-[2-Cyclopentyl-1-(4-methanesulfonyl-phenyl)-ethyl]-5-methoxymethyl-1H-pyrrolo[2,3-b]pyridine] | 2.8 µM |
| CS(=O)(=O)c1ccc(/C(=C\C2CCCO2)c2cc3cccnc3[nH]2)cc1 (centres unmarked) [Example 70, (E)-2-[1-(4-Methanesulfonyl-phenyl)-2-(tetrahydro-furan-2-yl)-vinyl]-1H-pyrrolo[2,3-b]pyridine] | 0.082 µM |
| CN(C)CC(=O)OCc1cnc2[nH]c(C(CC3CCCC3)c3ccc(S(C)(=O)=O)cc3)cc2c1 (centres unmarked) [Example 37, Dimethylamino-acetic acid 2-[2-cyclopentyl-1-(4-methanesulfonyl-phenyl)-ethyl]-1H-pyrrolo[2,3-b]pyridin-5-ylmethyl-ester] | 4.4 µM |
| CN(C)C(=O)COc1cnc2[nH]c(C(CC3CCCC3)c3ccc(S(C)(=O)=O)cc3)cc2c1 (centres unmarked) [Example 13, 2-{2-[2-Cyclopentyl-1-(4-methanesulfonyl-phenyl)-ethyl]-1H-pyrrolo[2,3-b]pyridin-5-yloxy}-N,N-dimethyl-acetamide] | 2.0 µM |
| CC(C)CC(c1ccc(S(C)(=O)=O)cc1)c1cc2cc(C(=O)NC(C)C)cnc2[nH]1 (centres unmarked) [Example 1, 2-[1-(4-Methanesulfonyl-phenyl)-3-methyl-butyl]-1H-pyrrolo[2,3-b]pyridin-5-carboxylic acid isopropylamide] | 19.0 µM |
| COC(=O)c1cnc2[nH]c(C(CC3CCCC3)c3ccc(S(C)(=O)=O)cc3)cc2c1 (centres unmarked) [Example 54, 2-[2-Cyclopentyl-1-(4-methanesulfonyl-phenyl)-ethyl]-1H-pyrrolo[2,3-b]pyridin-5-carboxylic acid methyl ester] | 1.2 µM |
| COC(=O)c1cnc2[nH]c([C@H](CC3CCCC3)c3ccc(S(C)(=O)=O)cc3)cc2c1 (single isomer, unassigned) [Example 55] | 0.512 µM |
| CS(=O)(=O)c1ccc(C(CC2CCCC2)c2cc3cc(CC#N)cnc3[nH]2)cc1 (centres unmarked) [Example 38, {2-[2-Cyclopentyl-1-(4-methanesulfonyl-phenyl)-ethyl]-1H-pyrrolo[2,3-b]pyridin-5-yl}-acetonitrile] | 9.8 µM |
| N#Cc1ccc([C@@H](CC2CCCC2)c2cc3cc(F)cnc3[nH]2)cc1 (single isomer, unassigned) [Example 51] | 0.343 µM |
| CS(=O)(=O)c1ccc(C(CC2CCC(=O)C2)c2cc3cccnc3[nH]2)cc1 (single isomer, unassigned) [Example 79, 3-[2-(4-Methanesulfonyl-phenyl)-2-(1H-pyrrolo[2,3-b]pyridin-2-yl)-ethyl]-cyclopentanone] | 0.201 µM |

Continued, values first:

| SC1.5 | Structure (SMILES) |
| --- | --- |
| 2.5 µM | O=S(=O)(CCO)c1ccc(C(CC2CCOCC2)c2cc3cc(F)cnc3[nH]2)cc1 (centres unmarked) [Example 89] |
| 9.4 µM | CN(C)CC(=O)Nc1cnc2[nH]c(C(CC3CCCC3)c3ccc(S(C)(=O)=O)cc3)cc2c1 (centres unmarked) [Example 107, N-{2-[2-Cyclopentyl-1-(4-methanesulfonyl-phenyl)-ethyl]-1H-pyrrolo[2,3-b]pyridin-5-yl}-2-dimethylamino-acetamide] |
| 1.7 µM | O=S(=O)(CCN1CCOCC1)c1ccc(C(CC2CCCC2)c2cc3cccnc3[nH]2)cc1 (centres unmarked) [Example 93, 2-{2-Cyclopentyl-1-[4-(2-morpholin-4-yl-ethanesulfonyl)-phenyl]-ethyl}-1H-pyrrolo[2,3-b]pyridine] |
| 10.9 µM | CC(C)CC(c1cccc(F)c1)c1cc2cccnc2[nH]1 (centres unmarked) [Example 132, 2-(1-(3-Fluoro-phenyl)-3-methyl-butyl)-1H-pyrrolo[2,3-b]pyridine] |
| 14.3 µM | CC(C)CC(c1cccc(N(C)C)c1)c1cc2cccnc2[nH]1 (centres unmarked) [Example 136, N,N-Dimethyl-3-(3-methyl-1-(1H-pyrrolo[2,3-b]pyridine-2-yl)butyl)benzenamine] |
| 0.67 µM | CC(C)(O)c1ccc([C@@H](CC2CCOCC2)c2cc3cc(F)cnc3[nH]2)cc1F (single isomer, unassigned) [Example 98] |
| 0.189 µM | CC(C)C[C@H](c1ccc(C(C)(C)O)c(F)c1)c1cc2cc(F)cnc2[nH]1 (single isomer, unassigned) [Example 106] |
| 5.9 µM | CCC(O)(CC)c1ccc([C@@H](CC2CCCC2)c2cc3cccnc3[nH]2)cc1 (single isomer, unassigned) [Example 84] |
| 0.071 µM | CS(=O)(=O)c1ccc(C(CC2CCCC2)c2cc3cc(F)cnc3[nH]2)cc1 (centres unmarked) [Example 117, 2-[2-Cyclopentyl-1-(4-methanesulfonyl-phenyl)-ethyl]-5-fluoro-1H-pyrrolo[2,3-b]pyridine] |
| 0.368 µM | CC(C)CC(c1ccc(C(C)(C)O)c(F)c1)c1cc2cc(F)cnc2[nH]1 (centres unmarked) [Example 105, 2-{2-Fluoro-4-[1-(5-fluoro-1H-pyrrolo[2,3-b]pyridin-2-yl)-3-methyl-butyl]-phenyl}-propan-2-ol] |
| 0.78 µM | CC(C)(O)c1ccc(C(CC2CCCC2)c2cc3cc(F)cnc3[nH]2)cc1 (centres unmarked) [Example 119, 2-{4-[2-Cyclopentyl-1-(5-fluoro-1H-pyrrolo[2,3-b]pyridin-2-yl)-ethyl]-phenyl}-propan-2-ol] |
| 0.201 µM | CC(C)C[C@H](c1ccc(S(C)(=O)=O)cc1)c1cc2cc(F)cnc2[nH]1 (single isomer, unassigned) [Example 100] |
| 0.15 µM | CS(=O)(=O)c1ccc(C(CC2CCCC2)c2cc3cc(Cl)cnc3[nH]2)cc1 (centres unmarked) [Example 111, 5-Chloro-2-[2-cyclopentyl-1-(4-methanesulfonyl-phenyl)-ethyl]-1H-pyrrolo[2,3-b]pyridine] |
